What was measured:
Format in all cases: in vivo
[1] = tested on: sedge, umbrella (small-flower umbrella sedge, Cyperus difformis); experiment: Test B flooded paddy test, plant response rating 0-100; settings: Flood, 250 g ai/ha; scale 0 to 100 (0 no effect, 100 complete control); 13 to 15 days
Procedure, shortened: (§1)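 In-water treatment: compound dosed into 3 cm flood over soil, water level unchanged throughout. Controls run alongside; visual assessment at day 13–15.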

[2] = tested on: barnyardgrass (Echinochloa crus-galli); experiment: as above; settings: Flood, 250 g ai/ha; scale 0 to 100 (0 no effect, 100 complete control); 13 to 15 days
Procedure, shortened: as §1

[3] = tested on: rice (Oryza sativa); experiment: as above; settings: Flood, 250 g ai/ha; scale 0 to 100 (0 no effect, 100 complete control); 13 to 15 days
Procedure, shortened: as §1

[4] = tested on: ducksalad (Heteranthera limosa); experiment: as above; settings: Flood, 250 g ai/ha; scale 0 to 100 (0 no effect, 100 complete control); 13 to 15 days
Procedure, shortened: as §1

[5] = tested on: barnyardgrass (Echinochloa crus-galli); experiment: Test C pre-/postemergence greenhouse test, plant response rating 0-100
Procedure, shortened: (§2)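 Scores run from 0, no effect, to 100, complete control, assigned by eye after treated plants and controls spent 13 to 15 days in a greenhouse. Soil-applied treatment went onto freshly sown seed in loam and sand; foliar treatment hit seedlings at the 1- to 4-leaf stage.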

[6] = tested on: oilseed rape (Brassica napus); experiment: as above
Procedure, shortened: as §2

[7] = tested on: waterhemp (common waterhemp, Amaranthus rudis); experiment: as above
Procedure, shortened: as §2

[8] = tested on: waterhemp_RES2, (ALS & HPPD resistant common waterhemp, Amaranthus rudis); experiment: Test E postemergence greenhouse test, plant response rating 0-100; settings: scale 0 to 100
Procedure: At the same time, plants from these crop and weed species and also waterhemp_RES1, (ALS & Triazine resistant common waterhemp, Amaranthus rudis), and waterhemp_RES2, (ALS & HPPD resistant common waterhemp, Amaranthus rudis) were planted in pots containing Redi-Earth® planting medium (Scotts Company, 14111 Scottslawn Road, Marysville, Ohio 43041) comprising spaghnum peat moss, vermiculite, wetting agent and starter nutrients were treated with postemergence applications of test chemicals formulated in the same manner. Plants ranged in height from 2 to 18 cm for postemergence treatments (1- to 4-leaf stage).
Treated plants and controls were maintained in a greenhouse for 14 to 21 days, after which time all species were compared to controls and visually evaluated. Plant response ratings, summarized in Table E, are based on a scale of 0 to 100 where 0 is no effect and 100 is complete control. A dash (-) response means no test result.

[9] = tested on: woolly cupgrass (Eriochloa villosa); experiment: Test C postemergence greenhouse test, plant response rating 0-100
Procedure, shortened: (§3)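 Postemergence spray onto 1–4-leaf potted seedlings, greenhouse incubation 13–15 days. Visual percent-control rating (0–100) against untreated plants.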

[10] = tested on: downy bromegrass (Bromus tectorum); experiment: as above; settings: for Plant response rating, Bromegrass, Downy: scale 0 to 100
Procedure, shortened: as §3

[11] = tested on: windgrass (Apera spica-venti); experiment: as above
Procedure, shortened: as §3

[12] = tested on: winter barley (Hordeum vulgare); experiment: as above; settings: for Plant response rating, Barley: scale 0 to 100
Procedure, shortened: as §3

[13] = tested on: deadnettle (henbit deadnettle, Lamium amplexicaule); experiment: as above
Procedure, shortened: as §3

[14] = tested on: canarygrass (Phalaris minor); experiment: as above
Procedure, shortened: as §3

[15] = tested on: cocklebur (common cocklebur, Xanthium strumarium); experiment: as above
Procedure, shortened: as §3

[16] = tested on: surinam grass (Brachiaria decumbens); experiment: as above
Procedure, shortened: as §3

[17] = tested on: green foxtail (Setaria viridis); experiment: as above
Procedure, shortened: as §3

[18] = Postemergence, 250 g ai/ha, scale 0 to 100
[19] = Postemergence, 500 g ai/ha, scale 0 to 100

## CCOC(OCC)(c1ccccc1)c1c[nH]nc1-c1cc(Cl)cc(Cl)c1 [Compound 14, 3-(3,5-dichlorophenyl)-4-(diethoxyphenylmethyl)-1H-pyrazole]
[1]
  Plant response rating, Sedge, Umbrella: 0
[2]
  Plant response rating, Barnyardgrass: 0
[3]
  Plant response rating, Rice: 0
[4]
  Plant response rating, Ducksalad: 0
[5]; Postemergence, 62 g ai/ha
  Plant response rating (0 to 100), Barnyardgrass: 0
[5]; Postemergence, 125 g ai/ha, scale 0 to 100
  Plant response rating, Barnyardgrass: 0
[5]; [18]
  Plant response rating, Barnyardgrass: 0
[5]; [19]
  Plant response rating, Barnyardgrass: 0
[5]; Preemergence, 62 g ai/ha
  Plant response rating, Barnyardgrass: 0
[5]; Preemergence, 125 g ai/ha
  Plant response rating, Barnyardgrass: 0
[5]; Preemergence, 250 g ai/ha
  Plant response rating, Barnyardgrass: 0
[5]; Preemergence, 500 g ai/ha
  Plant response rating, Barnyardgrass: 0
[6]; Postemergence, 62 g ai/ha
  Plant response rating (0 to 100), Oilseed Rape: 80
[6]; Postemergence, 125 g ai/ha
  Plant response rating (0 to 100), Oilseed Rape: 70
[6]; [18]
  Plant response rating, Oilseed Rape: 95
[6]; [19]
  Plant response rating, Oilseed Rape: 90
[6]; Preemergence, 62 g ai/ha
  Plant response rating, Oilseed Rape: 50
[6]; Preemergence, 125 g ai/ha
  Plant response rating, Oilseed Rape: 90
[6]; Preemergence, 250 g ai/ha
  Plant response rating, Oilseed Rape: 85
[6]; Preemergence, 500 g ai/ha
  Plant response rating, Oilseed Rape: 85
[7]; Postemergence, 62 g ai/ha
  Plant response rating (0 to 100), Waterhemp: 100
[7]; Postemergence, 125 g ai/ha
  Plant response rating (0 to 100), Waterhemp: 95
[7]; [18]
  Plant response rating, Waterhemp: 100
[7]; [19]
  Plant response rating, Waterhemp: 100
[7]; Preemergence, 62 g ai/ha
  Plant response rating, Waterhemp: 100
[7]; Preemergence, 125 g ai/ha
  Plant response rating, Waterhemp: 100
[7]; Preemergence, 250 g ai/ha
  Plant response rating, Waterhemp: 100
[7]; Preemergence, 500 g ai/ha
  Plant response rating, Waterhemp: 100
[8]; 31 g ai/ha
  Plant response rating, Waterhemp_RES2: 75
[8]; 62 g ai/ha
  Plant response rating, Waterhemp_RES2: 85
[8]; 125 g ai/ha
  Plant response rating, Waterhemp_RES2: 90
[8]; 250 g ai/ha
  Plant response rating, Waterhemp_RES2: 95
[8]; 500 g ai/ha
  Plant response rating, Waterhemp_RES2: 95

## Cn1cc(C(=NN2CCCC2)c2ccccc2)c(-c2cc(Cl)c(Cl)c(Cl)c2)n1 [Compound 25]
[1]
  Plant response rating, Sedge, Umbrella: 70
[3]
  Plant response rating, Rice: 0
[4]
  Plant response rating, Ducksalad: 0
[9]; 31 g ai/ha
  Plant response rating (0 to 100), Cupgrass, Woolly: 0
[9]; 62 g ai/ha
  Plant response rating (0 to 100), Cupgrass, Woolly: 0
[9]; 125 g ai/ha
  Plant response rating (0 to 100), Cupgrass, Woolly: 0
[9]; 250 g ai/ha, scale 0 to 100
  Plant response rating, Cupgrass, Woolly: 0
[10]; 31 g ai/ha
  Plant response rating (0 to 100), Bromegrass, Downy: 0
[10]; 62 g ai/ha
  Plant response rating (0 to 100), Bromegrass, Downy: 0
[10]; 125 g ai/ha
  Plant response rating, Bromegrass, Downy: 0
[10]; 250 g ai/ha
  Plant response rating, Bromegrass, Downy: 0
[11]; 62 g ai/ha
  Plant response rating (0 to 100), Windgrass: 0
[11]; 125 g ai/ha
  Plant response rating (0 to 100), Windgrass: 0
[11]; 250 g ai/ha, scale 0 to 100
  Plant response rating, Windgrass: 25
[12]; 31 g ai/ha
  Plant response rating (0 to 100), Barley: 0
[12]; 62 g ai/ha
  Plant response rating (0 to 100), Barley: 0
[12]; 125 g ai/ha
  Plant response rating, Barley: 5
[12]; 250 g ai/ha
  Plant response rating, Barley: 10
[13]; 31 g ai/ha
  Plant response rating (0 to 100), Deadnettle: 0
[13]; 62 g ai/ha
  Plant response rating (0 to 100), Deadnettle: 0
[13]; 125 g ai/ha
  Plant response rating (0 to 100), Deadnettle: 0
[13]; 250 g ai/ha, scale 0 to 100
  Plant response rating, Deadnettle: 0
[14]; 31 g ai/ha
  Plant response rating (0 to 100), Canarygrass: 0
[14]; 62 g ai/ha
  Plant response rating (0 to 100), Canarygrass: 0
[14]; 125 g ai/ha
  Plant response rating (0 to 100), Canarygrass: 0
[14]; 250 g ai/ha, scale 0 to 100
  Plant response rating, Canarygrass: 5
[15]; 31 g ai/ha
  Plant response rating (0 to 100), Cocklebur: 5
[15]; 62 g ai/ha
  Plant response rating (0 to 100), Cocklebur: 15
[15]; 125 g ai/ha
  Plant response rating (0 to 100), Cocklebur: 15
[15]; 250 g ai/ha, scale 0 to 100
  Plant response rating, Cocklebur: 25
[16]; 62 g ai/ha
  Plant response rating (0 to 100), Surinam Grass: 0
[16]; 125 g ai/ha
  Plant response rating (0 to 100), Surinam Grass: 0
[16]; 250 g ai/ha, scale 0 to 100
  Plant response rating, Surinam Grass: 0
[17]; 31 g ai/ha
  Plant response rating (0 to 100), Foxtail, Green: 0
[17]; 62 g ai/ha
  Plant response rating (0 to 100), Foxtail, Green: 0
[17]; 125 g ai/ha
  Plant response rating (0 to 100), Foxtail, Green: 5
[17]; 250 g ai/ha, scale 0 to 100
  Plant response rating, Foxtail, Green: 15

Source: patent US10167262B2, “Herbicidal substituted 3-arylpyrazoles” (FMC CORPORATION, priority 2014, dated 2019)
